Experimental data from US20120283293A1, “Methods of neuroprotection involving Prostaglandin E2 EP4 (PGE2 EP4) receptor activation” (The Board of Trustees of the Leland Stanford Junior …, priority 2011, published 2012).

System: microglia isolated from adult mouse brain
Test: inflammatory gene expression in microglia isolated from adult brain of LPS-treated mice
Type: in vivo
Conditions: 2-3 mo C57B6 male mice, LPS 5 mg/kg i.p., AE1-329 0.3 mg/kg subcutaneously, microglia harvested at 6 hours
Experimental: qPCR was carried out as previously described (Liang et al., 2008). Briefly, total RNA was isolated using Trizol reagent (Invitrogen, Carlsbad, Calif.), treated with DNAse (Invitrogen), and the reaction was terminated by heating at 65° C. for 10 minutes. First strand cDNA synthesis was performed with 1.5 μg of total RNA, 4 units of Omniscript enzyme (Qiagen, Valencia, Calif.) and 0.25 μg of random primer in a reaction volume of 20 μl at 37° C. for 1 hour. Reverse transcribed cDNA was diluted 1:20 in RNAse free ddH2O for subsequent RT-PCR. The mRNA level for each target gene was quantified by SYBR Green-based qPCR using the QuantiTect SYBR Green PCR kit (Qiagen). Melting curve analysis confirmed the specificity of each reaction. […] Quantification was performed using the standard curve method. […]
Adult microglial cell isolation was carried according to the methods of Cardona et al., 2006, and cells were processed for RNA isolation or flow cytometry. […] Purity of the microglial preparation was determined in separate experiments by labeling ˜10^5 cells/ml with phycoerythrin (PE)-conjugated hamster anti-mouse CD11b or IgG isotype control (1:100; eBioscience, San Diego, Calif.) for 30 minutes on ice. […] Flow cytometry was performed on a LSR II (BD Biosciences), and data analyzed with FlowJo 7.2.2 software. […]

For `COCc1ccccc1CC[C@H](O)/C=C/[C@H]1[C@H](O)CC(=O)[C@@H]1SCCCSCC(=O)O` [AE1-329], the “LPS-induced microglial COX-2, iNOS, IL-6, TNF-α and gp91phox expression” value was “significantly reduced”.
